From patent publication US10996205B2, “Stress biomarkers and related non-invasive detection methods” (ARIZONA BOARD OF REGENTS ON BEHALF OF THE UNIVERSITY OF …, priority 2015, dated 2021) come the findings set out here.

SMILES strings stand for the structures.

This data set in a line: Stability of cortisol in human eccrine sweat at room temperature.

Experimental: To test the stability of cortisol in human eccrine sweat in order to improve sweat collection method and procedures, aliquots of the same sweat samples were left at room temperature for a duration of 3 hours, with each aliquots analyzed every 30 minutes in first hour and every hour afterwards.
Spiked human eccrine sweat samples were tested over a period of 3 hours at room temperature.

For the molecule `C[C@]12CCC(=O)C=C1CC[C@@H]1[C@@H]2[C@@H](O)C[C@@]2(C)[C@H]1CC[C@]2(O)C(=O)CO` [cortisol, 4-PREGNEN-11β, 17, 21-TRIOL-3, 20-DIONE], the “cortisol loss in spiked human eccrine sweat” value (period of 3 hours at room temperature) was “No measurable cortisol loss”. For the same molecule, the Concentration (spiked sweat, 0 minutes at room temperature) is 29.191 ng/mL; the Concentration (spiked sweat, 30 minutes at room temperature) was 36.802 ng/mL; the Concentration (spiked sweat, 1 hour at room temperature) turned out to be 30.807 ng/mL; the Concentration (spiked sweat, 2 hours at room temperature) stood at 30.228 ng/mL; the Concentration (spiked sweat, 3 hours at room temperature) is 29.515 ng/mL; the Concentration (unspiked human eccrine sweat) stood at 3.488 ng/mL.
